Measurements reported in US9809623B2, “α4β7 peptide monomer and dimer antagonists” (Protagonist Therapeutics, Inc., priority 2014, dated 2017).
Numbered stars: 1 amine (or outer) side, 2 acyl side, 3 side chain; on linkers, the order of the positions; unused ones are H or OH. Bridge positions count the residues as written; N and C are the ends. Square brackets hold non-standard residues; d marks the D form. Peptide text beside a SMILES is read from it. I, II: the chains in the order shown. ξ: configuration not given here. Phe(4-tBu) = CC(C)(C)c1ccc(C[C@H](N)C(=O)O)cc1; Diglycolyl = O=C(COCC(=O)[*:2])[*:1]; NMeR = CN[C@@H](CCCNC(=N)N)C(=O)O; β3hE = N[C@@H](CCC(=O)O)CC(=O)O; Thr(3ξ) = CC(O)[C@H](N)C(=O)O; Pen = CC(C)(S)[C@H](N)C(=O)O

Legend:
[1] = test system: BALB/c mice, chronic DSS colitis; experiment: 15 day chronic DSS colitis mouse model; assay type: in vivo
Procedure: To further evaluate the efficacy of peptides of the present invention in treating colitis, a chronic DSS colitis mouse model was used to examine the effects of orally administered Peptide X or another peptide, Peptide XX, as compared to vehicle control or the antibodies, MECA 367 and DATK32. Peptide XX is a dimer having the following structure, where DIG links the two peptide monomers by their C-termini:
In this 15 day chronic DSS colitis study, BALB/c mice were treated continuously with 2.5% DSS. Peptide X dosing was 55 mg/kg/day, 17 mg/kg/day or 6 mg/kg/day in drinking water. Peptide XX dosing was 10 mg/kg PO BID plus 0.2 mg/ml in drinking water. The anti-α4β7 Ab DATK32 was dosed 25 mg/kg IP every 3 days, and the anti-MAdCAM Ab MECA 367 was dosed 8 mg/kg IP daily. After takedown, distal colon sections were fixed for histopathology and processed for β7+ cell IH staining using the anti-β7 antibody M293.

Intestinal Wash Assay = assay type: in vitro ADME; set-up: dose or concentration left out as unconfirmed; settings: rat, rat intestinal wash fluid (small intestine); Table 4-C, t1/2
Procedure: Intestinal wash assay solution was prepared from rats fasted for at least 6 hours prior. The animals were euthanized and a midline incision was made from the point of the jaw to the pubis. The abdomen and chest were opened by making 2 incisions through the anterior chest wall on either side. Hemostats were used to clamp off both ends of the animal's stomach—where the esophagus meets the stomach and where the stomach meets the duodenum. A hemostat was also used to clamp 2-3 cm down the intestine from where the stomach meets the duodenum.
Intestinal wash assay solution was prepared by separating 20 cm of the small intestine from the body. Once separated 20 cm, the end was clamped with a hemostat and the section cut from the body, leaving the hemostats in place on the removed section. 1 mL of chilled saline was drawn up with a 1 mL syringe. One end of the intestine was held up and the clamp removed. Approximately 2-2.5 cm of the gavage needle was inserted into the intestine, and the saline was slowly injected. The fluid was massaged down the length of the intestine using gloved fingers. The gavage needle was removed and the clamp was replaced on the end of the intestine. The intestine was sat straight and a q-tip was run firmly up and down the length of the outside of the intestine approximately 3-6 times to mix the enzymes with the saline. One end of the intestine was held up and some of the fluid was carefully moved at the top down. The clamp was removed and that end of the intestine was set into a small weigh boat on ice. The other end of the intestine was carefully picked up and held vertically. Gloved fingers were gently run down it to squeeze the fluid into the container. The previous steps saline injection and fluid procurement steps were repeated twice using only 0.5 mL of chilled saline. The sample was pipetted from the weigh boat into a centrifuge tube and placed on ice. All intestinal wash samples were spun down in a cold centrifuge at 12,000×g for 10 minutes. The supernatant from the top of each centrifuged sample was pipetted into cryotubes, and kept on ice until use.
Intestinal wash assays were performed using intestinal wash assay solution prepared as described above. A sufficient amount of rat intestinal wash was thawed. For each sample, 200 uL of rat intestinal wash fluid was pipetted into 1.5 mL Eppendorf tubes (number of tubes for experiment=number of test peptides×N). The tubes were pre-incubated for about 10 minutes in a water bath at 37° C.
Peptide working solutions ([…]) were prepared by combining 2 μl of 10 mM DMSO stock with 128 μl 100 mM Tris pH 7.5.
Peptide quench solvent (50% ACN-50% MeOH-5% Formic Acid)+IS (5 ug/ml; 1 ul of 10 mg/mL IS per 2 mL quench solvent) was prepare and a quench plate prepared and placed on ice. 200 ul of quench solution was added to each well of the quench plate for T=0, 10, 20, 30, 60 and 180 min collection.
For each test sample and a positive control, 30 ul of peptide working solution was added to a tube of intestinal wash fluid. The tube was gently vortexed and 30 ul was immediately removed and quenched in T=0 well of quench plate (pipetted directly into the quench solution). This well was covered tightly to prevent evaporation. 30 ul aliquots were removed at T=10 min, T=20 min, T=30 min, T=60 min, and T=180 min, and quenched. When all time points were collected, the quench plate was centrifuged at 10,000 rpm for 10 minutes. 150 uL of each supernatant was transferred to a polypropylene 96-well collection plate. 300 ul Mobile Phase A was added to each collection, and LC/MS/MS analysis was performed to determine the amount or concentration of peptide remaining in each test sample and positive control.

Plasma Stability Assay = assay type: in vitro ADME; settings: rat, Table 4-C, t1/2
Outline: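 Rat plasma at 37° C with gentle shaking, peptide added from 10 mM stock; samples taken at 0, 10, 30, 45, 60, 120 and 180 min and quenched 1:4 with acetonitrile/0.1% formic acid. After centrifugation, supernatants were mixed with internal standard peptide (1 ug/mL) and analysed by LC-MS.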

[2] = Cysteine/Cystine Redox Stability Assay; assay type: physicochemical; settings: Table 4-C; ORP where half of the oxidized peptide remains
Procedure: Peptides were diluted to 90 μM by adding 4.545 μl of a 10 mM peptide DMSO stock to 495.45 μl of 100 mM Tris-Cl, pH 7.5. Aliquots of […] were transferred to 8 wells down a column of a 96 well plate. 20 μl of 2.5 mM Cystine in 100 mM Tris-Cl, pH 7.5 was added to each well. Cysteine stock solutions in 100 mM Tris-Cl, pH 7.5 were prepared fresh at the following concentrations: 400 mM, 200 mM, 80 mM, 44 mM, 22 mM, 11 mM, 5.5 mM and blank. At time 0, 25 μl of each cysteine stock solution was added to the 55 μl of cystine/peptide solution, and the mixture was incubated at room temperature for 40 min. The samples were quenched by adding 20 μl of 5M acetic acid and analyzed by reverse phase HPLC. The fraction of oxidized peptide was calculated and plotted against the calculated oxidation reduction potential (ORP) as defined by the Nernst equation. The ORP where half of the oxidized peptide remains is shown below.

[3] = PK studies in normal or DSS treated mice and rats, oral dosing; assay type: in vivo
[4] = 10 mg/kg PO BID plus 0.2 mg/ml in drinking water

CC(=O)N[C@@H]1C(=O)N(C)[C@@H](CCCNC(=N)N)C(=O)N[C@@H](CO)C(=O)N[C@@H](CC(=O)O)C(=O)N[C@@H]([C@@H](C)O)C(=O)N[C@@H](CC(C)C)C(=O)N[C@H](C(=O)N[C@@H](Cc2c[nH]c3ccccc23)C(=O)N[C@@H](CCC(=O)O)CC(=O)N[C@H](CCCCNC(=O)COCC(=O)NCCCC[C@@H](NC(=O)C[C@H](CCC(=O)O)NC(=O)[C@H](Cc2c[nH]c3ccccc23)NC(=O)[C@H]2NC(=O)[C@H](CC(C)C)NC(=O)[C@H]([C@@H](C)O)NC(=O)[C@H](CC(=O)O)NC(=O)[C@H](CO)NC(=O)[C@H](CCCNC(=N)N)N(C)C(=O)[C@@H](NC(C)=O)C(C)(C)SSC2(C)C)C(N)=O)C(N)=O)C(C)(C)SSC1(C)C [compound 213, [Ac-Pen-(N-Me-Arg)-Ser-Asp-Thr-Leu-Pen-Trp-(β-homoGlu)-(D-Lys)-NH2]2-DIG] (I: Ac-[Pen][NMeR]SDTL[Pen]W[β3hE][dK]-NH2 / II: Ac-[Pen][NMeR]SDTL[Pen]W[β3hE][dK]-NH2; disulfide I:1-I:7, II:1-II:7; linker I:10-II:10 via Diglycolyl)
colon macroscopic and histopathology scores [1, 4]: reduced colon macroscopic and histopathology scores comparable to the antibodies | infiltration of B7+ cells into the lamina propria of the distal colon [1, 4]: reduced infiltration

CC(=O)N[C@@H]1C(=O)N(C)[C@@H](CCCNC(=N)N)C(=O)N[C@@H](CO)C(=O)N[C@@H](CC(=O)O)C(=O)N[C@@H]([C@@H](C)O)C(=O)N[C@@H](CC(C)C)C(=O)N[C@H](C(=O)N[C@@H](Cc2ccc(C(C)(C)C)cc2)C(=O)N[C@@H](CCC(=O)O)CC(=O)N[C@H](CCCCNC(=O)COCC(=O)NCCCC[C@@H](NC(=O)C[C@H](CCC(=O)O)NC(=O)[C@H](Cc2ccc(C(C)(C)C)cc2)NC(=O)[C@H]2NC(=O)[C@H](CC(C)C)NC(=O)[C@H]([C@@H](C)O)NC(=O)[C@H](CC(=O)O)NC(=O)[C@H](CO)NC(=O)[C@H](CCCNC(=N)N)N(C)C(=O)[C@@H](NC(C)=O)C(C)(C)SSC2(C)C)C(N)=O)C(N)=O)C(C)(C)SSC1(C)C [compound 218, [Ac-Pen-(N-Me-Arg)-Ser-Asp-Thr-Leu-Pen-Phe(4-tBu)-(β-homoGlu)-(D-Lys)-NH2]2-DIG] (I: Ac-[Pen][NMeR]SDTL[Pen][Phe(4-tBu)][β3hE][dK]-NH2 / II: Ac-[Pen][NMeR]SDTL[Pen][Phe(4-tBu)][β3hE][dK]-NH2; disulfide I:1-I:7, II:1-II:7; linker I:10-II:10 via Diglycolyl)
half-life (Intestinal Wash Assay): > 6 h | half-life at 20 μM (Plasma Stability Assay): > 6 h | Cys/CySS (mV) [2]: <−300 mV

CC(=O)N[C@@H]1C(=O)N(C)[C@@H](CCCNC(=N)N)C(=O)N[C@@H](CO)C(=O)N[C@@H](CC(=O)O)C(=O)N[C@@H]([C@@H](C)O)C(=O)N[C@@H](CC(C)C)C(=O)N[C@H](C(=O)N[C@@H](Cc2c[nH]c3ccccc23)C(=O)N[C@@H](CCC(=O)O)C(=O)N[C@H](CCCCNC(=O)COCC(=O)NCCCC[C@@H](NC(=O)[C@H](CCC(=O)O)NC(=O)[C@H](Cc2c[nH]c3ccccc23)NC(=O)[C@H]2NC(=O)[C@H](CC(C)C)NC(=O)[C@H]([C@@H](C)O)NC(=O)[C@H](CC(=O)O)NC(=O)[C@H](CO)NC(=O)[C@H](CCCNC(=N)N)N(C)C(=O)[C@@H](NC(C)=O)C(C)(C)SSC2(C)C)C(N)=O)C(N)=O)C(C)(C)SSC1(C)C [compound 217, (Ac-Pen-N-Me-R-S-D-T-L-Pen-W-E-k-NH2)2-DIG] (I: Ac-[Pen][NMeR]SDTL[Pen]WE[dK]-NH2 / II: Ac-[Pen][NMeR]SDTL[Pen]WE[dK]-NH2; disulfide I:1-I:7, II:1-II:7 (inferred); linker I:10-II:10 via Diglycolyl (inferred))
half-life (Intestinal Wash Assay): > 3 h | half-life at 20 μM (Plasma Stability Assay): > 2 h | Cys/CySS (mV) [2]: <−300 mV

CC(=O)N[C@@H]1C(=O)N(C)[C@@H](CCCNC(=N)N)C(=O)N[C@@H](CO)C(=O)N[C@@H](CC(=O)O)C(=O)N[C@@H](C(C)O)C(=O)N[C@@H](CC(C)C)C(=O)N[C@H](C(=O)N[C@@H](Cc2ccc(C(C)(C)C)cc2)C(=O)N[C@@H](CCC(=O)O)CC(=O)N[C@H](CCCCNC(=O)COCC(=O)NCCCC[C@@H](NC(=O)C[C@H](CCC(=O)O)NC(=O)[C@H](Cc2ccc(C(C)(C)C)cc2)NC(=O)[C@H]2NC(=O)[C@H](CC(C)C)NC(=O)[C@H](C(C)O)NC(=O)[C@H](CC(=O)O)NC(=O)[C@H](CO)NC(=O)[C@H](CCCNC(=N)N)N(C)C(=O)[C@@H](NC(C)=O)C(C)(C)SSC2(C)C)C(N)=O)C(N)=O)C(C)(C)SSC1(C)C (stereo partly drawn) [Peptide X, [Ac-Pen-(N-Me-Arg)-Ser-Asp-Thr-Leu-Pen-(Phe(4-tBu))-(β-homoGlu)-(D-Lys)]2-DIG] (I: Ac-[Pen][NMeR]SD[Thr(3ξ)]L[Pen][Phe(4-tBu)][β3hE][dK]-NH2 / II: Ac-[Pen][NMeR]SD[Thr(3ξ)]L[Pen][Phe(4-tBu)][β3hE][dK]-NH2; disulfide I:1-I:7, II:1-II:7; linker I:10-II:10 via Diglycolyl)
infiltration of B7+ cells into the lamina propria of the distal colon ([1]; all doses: 55, 17 or 6 mg/kg/day in drinking water): reduced infiltration | levels in the blood and urine after oral dosing [3]: no significant measurable levels in the blood and urine
